According to ChEMBL document CHEMBL4699632, “Discovery of polypodiside as a Keap1-dependent Nrf2 activator attenuating oxidative stress and accumulation of extracellular matrix in glomerular mesangial cells under high glucose” (Bioorg Med Chem, 2020):
Activity calls are given as the source filed them. The rule behind the calls is not given here.

What was measured:
[1] = Cytotoxicity against human glomerular mesangial cells assessed as effect on cell viability at 400 uM after 1 hr by CCK8 assay; assay type: cell-based
[2] = Suppression of high glucose-induced extracellular matrix accumulation in human glomerular mesangial cells assessed as effect on TGFbeta1 secretion at 0.1 uM by ELISA (reference value: 312.7 +/- 18.2 %); assay type: functional; settings: Glomerular mesangial cell
[3] = Antioxidant activity against high glucose-induced oxidative stress in human glomerular mesangial cells assessed as effect on intracellular ROS level at 1 uM after 20 mins by DCFH-DA staining based fluorescence assay (reference value: 361 +/- 16.7 %); assay type: functional, Glomerular mesangial cell
[4] = system: Glomerular mesangial cell; assay: Cytoprotective activity against high glucose-induced decreased cell viability in human glomerular mesangial cells at 0.1 uM after 1 hr by CCK8 assay; assay type: functional, tissue-based
[5] = Antioxidant activity against high glucose-induced oxidative stress in human glomerular mesangial cells assessed as effect on SOD activity at 0.1 uM by colorimetric assay relative to control; assay type: functional, Glomerular mesangial cell
[6] = system: Glomerular mesangial cell; assay: Suppression of high glucose-induced extracellular matrix accumulation in human glomerular mesangial cells assessed as reduction in collagen 4 level by ELISA; assay type: functional, tissue-based; settings: dose microM 0.1-10
[7] = system: Glomerular mesangial cell; assay: Suppression of high glucose-induced extracellular matrix accumulation in human glomerular mesangial cells assessed as decrease in CTGF secretion by ELISA; assay type: functional, tissue-based; settings: dose microM 0.1-10
[8] = Suppression of high glucose-induced extracellular matrix accumulation in human glomerular mesangial cells assessed as collagen 4 level at 10 uM by ELISA (reference value: 221.7 +/- 14.1 %); assay type: functional; settings: Glomerular mesangial cell
[9] = Antioxidant activity against high glucose-induced oxidative stress in human glomerular mesangial cells assessed as effect on intracellular ROS level at 0.1 uM after 20 mins by DCFH-DA staining based fluorescence assay (reference value: 361 +/- 16.7 %); assay type: functional, Glomerular mesangial cell
[10] = biological target: T1, Nuclear factor erythroid 2-related factor 2 (Homo sapiens) (UniProt Q16236); assay: Activation of Nrf2 in human glomerular mesangial cells transfected with ARE luciferase reporter plasmid assessed as increase in ARE luciferase activity at 0.1 to 10 uM under high glucose condition by dual luciferase reporter gene assay; settings: Glomerular mesangial cell, filed as activator, dose microM 0.1-10
T1 sequence (whole entry): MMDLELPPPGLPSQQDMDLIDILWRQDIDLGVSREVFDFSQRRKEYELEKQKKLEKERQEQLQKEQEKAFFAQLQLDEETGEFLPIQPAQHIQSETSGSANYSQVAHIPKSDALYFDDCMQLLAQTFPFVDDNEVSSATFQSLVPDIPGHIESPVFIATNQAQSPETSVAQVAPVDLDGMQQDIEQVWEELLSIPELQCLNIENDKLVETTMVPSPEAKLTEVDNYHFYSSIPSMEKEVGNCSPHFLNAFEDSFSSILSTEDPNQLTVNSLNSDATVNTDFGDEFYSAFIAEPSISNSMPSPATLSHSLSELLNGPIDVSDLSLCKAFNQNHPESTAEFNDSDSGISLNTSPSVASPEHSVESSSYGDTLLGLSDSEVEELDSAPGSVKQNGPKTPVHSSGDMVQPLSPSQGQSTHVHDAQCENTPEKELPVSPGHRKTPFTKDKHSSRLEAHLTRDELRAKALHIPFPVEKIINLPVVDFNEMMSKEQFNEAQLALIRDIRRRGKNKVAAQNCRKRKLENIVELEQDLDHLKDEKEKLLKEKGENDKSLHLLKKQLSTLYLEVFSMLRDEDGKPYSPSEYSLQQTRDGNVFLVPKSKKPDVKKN

[11] = biological target: T1, Nuclear factor erythroid 2-related factor 2 (Homo sapiens); assay: Activation of Nrf2 in human glomerular mesangial cells assessed as translocation of Nrf2 from cytoplasm to nucleus at 0.1 to 10 uM under high glucose condition by DAPI staining based fluorescence microscopy analysis; assay type: tissue-based; settings: Glomerular mesangial cell, filed as activator, dose microM 0.1-10
[12] = system: Glomerular mesangial cell; assay: Suppression of high glucose-induced extracellular matrix accumulation in human glomerular mesangial cells assessed as decrease in TGFbeta1 secretion by ELISA; assay type: functional, tissue-based; settings: dose microM 0.1-10
[13] = Suppression of high glucose-induced extracellular matrix accumulation in human glomerular mesangial cells assessed as collagen 4 level at 1 uM by ELISA (reference value: 221.7 +/- 14.1 %); assay type: functional; settings: Glomerular mesangial cell
[14] = system: Glomerular mesangial cell; assay: Suppression of high glucose-induced extracellular matrix accumulation in human glomerular mesangial cells assessed as reduction in fibronectin level by ELISA; assay type: functional, tissue-based; settings: dose microM 0.1-10
[15] = Antioxidant activity against high glucose-induced oxidative stress in human glomerular mesangial cells assessed as effect on CAT activity at 1 uM by colorimetric assay relative to control; assay type: functional, Glomerular mesangial cell
[16] = Suppression of high glucose-induced extracellular matrix accumulation in human glomerular mesangial cells assessed as effect on TGFbeta1 secretion at 1 uM by ELISA (reference value: 312.7 +/- 18.2 %); assay type: functional; settings: Glomerular mesangial cell
[17] = Antioxidant activity against high glucose-induced oxidative stress in human glomerular mesangial cells assessed as effect on intracellular MDA level at 1 uM after 10 mins by thiobarbituric acid based absorbance analysis (reference value: 216 +/- 17.3 %); assay type: functional, Glomerular mesangial cell
[18] = biological target: T1, Nuclear factor erythroid 2-related factor 2 (Homo sapiens); assay: Activation of Nrf2 in human glomerular mesangial cells assessed as increase in Nrf2 level at 0.1 to 10 uM under high glucose condition; assay type: tissue-based; settings: Glomerular mesangial cell, filed as activator, dose microM 0.1-10
[19] = Antioxidant activity against high glucose-induced oxidative stress in human glomerular mesangial cells assessed as effect on CAT activity at 0.1 uM by colorimetric assay relative to control; assay type: functional, Glomerular mesangial cell
[20] = system: Glomerular mesangial cell; assay: Effect on high glucose-induced extracellular matrix accumulation in human glomerular mesangial cells transfected with Nrf2-siRNA assessed as decrease in collagen 4 level at 10 uM; assay type: functional, tissue-based
[21] = Suppression of high glucose-induced extracellular matrix accumulation in human glomerular mesangial cells assessed as laminin level at 10 uM by ELISA (reference value: 183.8 +/- 9.3 %); assay type: functional; settings: Glomerular mesangial cell
[22] = Suppression of high glucose-induced extracellular matrix accumulation in human glomerular mesangial cells assessed as fibronectin level at 1 uM by ELISA (reference value: 319.6 +/- 12.4 %); assay type: functional; settings: Glomerular mesangial cell
[23] = biological target: T1, Nuclear factor erythroid 2-related factor 2 (Homo sapiens); assay: Activation of Nrf2 in human glomerular mesangial cells assessed as increase in nuclear Nrf2 expression at 0.1 to 10 uM under high glucose condition by Western blot analysis; settings: Glomerular mesangial cell, filed as activator, dose microM 0.1-10
[24] = Suppression of high glucose-induced extracellular matrix accumulation in human glomerular mesangial cells assessed as effect on TGFbeta1 secretion at 10 uM by ELISA (reference value: 312.7 +/- 18.2 %); assay type: functional; settings: Glomerular mesangial cell
[25] = Suppression of high glucose-induced extracellular matrix accumulation in human glomerular mesangial cells assessed as effect on CTGF secretion at 10 uM by ELISA (reference value: 267.7 +/- 21.3 %); assay type: functional; settings: Glomerular mesangial cell
[26] = system: Glomerular mesangial cell; assay: Suppression of high glucose-induced extracellular matrix accumulation in human glomerular mesangial cells assessed as reduction in laminin level by ELISA; assay type: functional, tissue-based; settings: dose microM 0.1-10
[27] = system: Glomerular mesangial cell; assay: Effect on high glucose-induced extracellular matrix accumulation in human glomerular mesangial cells transfected with Nrf2-siRNA assessed as decrease in laminin level at 10 uM; assay type: functional, tissue-based
[28] = biological target: Kelch-like ECH-associated protein 1 (Homo sapiens) (UniProt Q14145); assay: Binding affinity to Keap1 in human glomerular mesangial cells assessed as disruption of Keap1-Nrf2 complex formation causing decrease in Keap1 level at 10 uM measured after overnight by co-immunoprecipitation analysis; assay type: tissue-based; settings: Glomerular mesangial cell, filed as activator, time 12.0 hrs
[29] = Suppression of high glucose-induced extracellular matrix accumulation in human glomerular mesangial cells assessed as laminin level at 1 uM by ELISA (reference value: 183.8 +/- 9.3 %); assay type: functional; settings: Glomerular mesangial cell
[30] = Antioxidant activity against high glucose-induced oxidative stress in human glomerular mesangial cells assessed as effect on intracellular ROS level at 10 uM after 20 mins by DCFH-DA staining based fluorescence assay (reference value: 361 +/- 16.7 %); assay type: functional, Glomerular mesangial cell
[31] = system: Glomerular mesangial cell; assay: Increase in total Nrf2 expression in human glomerular mesangial cells at 10 uM under high glucose condition by Western blot analysis; assay type: functional, tissue-based; settings: dose microM 0.1-10
[32] = Antioxidant activity against high glucose-induced oxidative stress in human glomerular mesangial cells assessed as effect on intracellular MDA level at 0.1 uM after 10 mins by thiobarbituric acid based absorbance analysis (reference value: 216 +/- 17.3 %); assay type: functional, Glomerular mesangial cell
[33] = Suppression of high glucose-induced extracellular matrix accumulation in human glomerular mesangial cells assessed as fibronectin level at 10 uM by ELISA (reference value: 319.6 +/- 12.4 %); assay type: functional; settings: Glomerular mesangial cell
[34] = Suppression of high glucose-induced extracellular matrix accumulation in human glomerular mesangial cells assessed as fibronectin level at 0.1 uM by ELISA (reference value: 319.6 +/- 12.4 %); assay type: functional; settings: Glomerular mesangial cell
[35] = Antioxidant activity against high glucose-induced oxidative stress in human glomerular mesangial cells assessed as effect on SOD activity at 10 uM by colorimetric assay relative to control; assay type: functional, Glomerular mesangial cell
[36] = system: Glomerular mesangial cell; assay: Cytoprotective activity against high glucose-induced self-limited proliferation in human glomerular mesangial cells at 0.1 to 10 uM measured after 3 hrs under high glucose condition by BrdU incorporation assay; assay type: functional, tissue-based; settings: dose microM 0.1-10, time 3.0 hrs
[37] = Suppression of high glucose-induced extracellular matrix accumulation in human glomerular mesangial cells assessed as laminin level at 0.1 uM by ELISA (reference value: 183.8 +/- 9.3 %); assay type: functional; settings: Glomerular mesangial cell
[38] = Antioxidant activity against high glucose-induced oxidative stress in human glomerular mesangial cells assessed as effect on SOD activity at 1 uM by colorimetric assay relative to control; assay type: functional, Glomerular mesangial cell
[39] = system: Glomerular mesangial cell; assay: Effect on high glucose-induced oxidative stress in human glomerular mesangial cells transfected with Nrf2-siRNA assessed as decrease in intracellular ROS level at 10 uM; assay type: functional, tissue-based
[40] = system: Glomerular mesangial cell; assay: Effect on high glucose-induced oxidative stress in human glomerular mesangial cells transfected with Nrf2-siRNA assessed as decrease in intracellular MDA level at 10 uM; assay type: functional
[41] = system: Glomerular mesangial cell; assay: Effect on high glucose-induced extracellular matrix accumulation in human glomerular mesangial cells transfected with Nrf2-siRNA assessed as decrease in fibronectin level at 10 uM; assay type: functional, tissue-based
[42] = Antioxidant activity against high glucose-induced oxidative stress in human glomerular mesangial cells assessed as effect on CAT activity at 10 uM by colorimetric assay relative to control; assay type: functional, Glomerular mesangial cell
[43] = Suppression of high glucose-induced extracellular matrix accumulation in human glomerular mesangial cells assessed as collagen 4 level at 0.1 uM by ELISA (reference value: 221.7 +/- 14.1 %); assay type: functional; settings: Glomerular mesangial cell
[44] = Antioxidant activity against high glucose-induced oxidative stress in human glomerular mesangial cells assessed as effect on intracellular MDA level at 10 uM after 10 mins by thiobarbituric acid based absorbance analysis (reference value: 216 +/- 17.3 %); assay type: functional, Glomerular mesangial cell

Kelch-like ECH-associated protein 1 (Homo sapiens), sequence (Q14145 whole entry): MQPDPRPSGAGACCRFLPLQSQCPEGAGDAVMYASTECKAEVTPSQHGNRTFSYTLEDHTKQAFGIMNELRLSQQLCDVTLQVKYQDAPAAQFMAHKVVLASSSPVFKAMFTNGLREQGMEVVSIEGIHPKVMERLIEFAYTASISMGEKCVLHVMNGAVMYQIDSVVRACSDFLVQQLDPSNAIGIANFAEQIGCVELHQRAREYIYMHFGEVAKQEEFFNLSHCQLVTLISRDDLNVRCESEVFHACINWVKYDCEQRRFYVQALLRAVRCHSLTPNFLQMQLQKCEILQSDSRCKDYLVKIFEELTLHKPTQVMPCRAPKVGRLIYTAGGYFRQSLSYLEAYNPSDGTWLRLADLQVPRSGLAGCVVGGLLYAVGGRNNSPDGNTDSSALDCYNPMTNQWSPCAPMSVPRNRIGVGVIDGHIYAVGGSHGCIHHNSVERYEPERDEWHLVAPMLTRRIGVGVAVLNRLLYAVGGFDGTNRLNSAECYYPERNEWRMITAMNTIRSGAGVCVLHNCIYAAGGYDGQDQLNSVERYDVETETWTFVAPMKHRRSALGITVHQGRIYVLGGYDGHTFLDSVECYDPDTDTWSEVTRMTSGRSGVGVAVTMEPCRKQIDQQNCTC

Activity [10]: Active | Activity [11]: Active | Activity [18]: Active | Activity [23]: Active | Activity [28]: Active
Structure (SMILES): O=C(O)/C=C/c1cc(OC(=O)/C=C/c2ccc(O[C@@H]3O[C@H](CO)[C@@H](O)[C@H](O)[C@H]3O)cc2)cc(O[C@@H]2O[C@H](CO)[C@@H](O)[C@H](O)[C@H]2O)c1
Activity [1]: Non-Toxic | level, % of control at 0.1 µM [2]: 262% | Activity [3]: 287.2% | Activity [4]: Active | Activity [5]: 155.7% | inhibition [6]: Dose-dependent effect | inhibition [7]: Dose-dependent effect | level, % of control at 10 µM [8]: 129% | Activity [9]: 323% | inhibition [12]: Dose-dependent effect | level, % of control at 1 µM [13]: 163% | inhibition [14]: Dose-dependent effect | Activity [15]: 188.5% | level, % of control at 1 µM [16]: 213% | Activity [17]: 163.7% | Activity [19]: 144.6% | Activity [20]: inactive | level, % of control at 10 µM [21]: 124% | level, % of control at 1 µM [22]: 246% | level, % of control at 10 µM [24]: 140% | level, % of control at 10 µM [25]: 119% | inhibition [26]: Dose-dependent effect | Activity [27]: inactive | level, % of control at 1 µM [29]: 148% | Activity [30]: 190.8% | Activity [31]: Active | Activity [32]: 183.9% | level, % of control at 10 µM [33]: 179% | level, % of control at 0.1 µM [34]: 282% | Activity [35]: 306.3% | Activity [36]: Active | level, % of control at 0.1 µM [37]: 163% | Activity [38]: 229.2% | Activity [39]: inactive | Activity [40]: inactive | Activity [41]: inactive | Activity [42]: 233.4% | level, % of control at 0.1 µM [43]: 193% | Activity [44]: 135.9%
